The conditions of data set [1]: 293.15 K; 101.33 kPa; Liquid.
Data set [2] is described as follows: refractive index (Na D-line) (dimensionless). As to conditions: 293.15 K; 101.33 kPa; Liquid; Standard Abbe refractometry.

± gives the expanded uncertainty stated by the source.

Broadly, the mass density is the mass of a sample divided by its volume. Broadly, the refractive index is a measure of how strongly the sample bends light. As to `ClCCCl` [1,2-dichloroethane], the mass density in data set [1] amounted to 1251 ± 1 kg/m3. Besides, the refractive index in data set [2] came to 1.4445 ± 0.0007.
In the case of `CC(=O)O` [acetic acid], the mass density in data set [1] was 1049.4 ± 0.3 kg/m3. Moreover, the refractive index in data set [2] came to 1.3713 ± 0.0007.
`Cc1ccccc1` [toluene]: in data set [1], the mass density is listed as 862.2 ± 0.5 kg/m3. In addition, the refractive index in data set [2] is on record as 1.4953 ± 0.0007.

These data come from the NIST ThermoML archive (doi:10.1016/j.jct.2006.12.003).
